# Measured values as given in patent US6906205B2, “Spiro and dispiro 1,2,4-trioxolane antimalarials” (Medicines for Malaria Venture MMV, priority 2002, dated 2005).
# What was measured:
# [1] = test system: ANKA strain of Plasmodium berghei; test: single dose ED50/ED90/ED99 determinations in infected mice; format: in vivo; conditions: single dose po in SSV, mice, percent reduction in parasitemia on day three post-infection
# Experimental: In the single dose ED50/ED90/ED99 determinations, Moro SPF or NMRI mice (group of three) infected with the ANKA strain of Plasmodium berghei were treated on day one post-infection. […] The SSV consists of 0.5% w/v CMC, 0.5% v/v benzyl alcohol, 0.4% v/v Tween 80, and 0.9% w/v sodium chloride in water. Antimalarial activity was measured by percent reduction in parasitemia on day three post-infection. The ED50/ED90 values were calculated by nonlinear fitting.
# [2] = test system: ANKA strain of P. berghei; test: single dose STI in vivo screen in infected mice; design: species or system Plasmodium berghei; conditions: for Activity (%) po / Activity (%) sc / Activity (%) SSVpo: percent reduction in parasitemia day 3 post-infection, mice; for Activity (%) po / Survival (days) po: single 10 mg/kg po in 3% ethanol and 7% Tween 80; for Activity (%) sc / Survival (days) sc: single 10 mg/kg sc in 3% ethanol and 7% Tween 80; for Activity (%) SSVpo: single po dose in standard suspending vehicle (SSV); for Survival (days) po / Survival (days) sc / Survival (days) SSVpo: untreated control 5.6 ± 0.3; for Survival (days) SSVpo: single po dose in SSV
# Outline: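 Groups of 3-5 Moro SPF or NMRI mice infected with the ANKA strain of P. berghei received a single dose of trioxolane on day one post-infection. The compound was given in 3% ethanol and 7% Tween 80 or in SSV (0.5% w/v CMC, 0.5% v/v benzyl alcohol, 0.4% v/v Tween 80, 0.9% w/v sodium chloride in water). Antimalarial activity was scored as percent reduction in parasitemia on day three and as survival time versus untreated controls. Survival to day 30 counted as cure.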
# [3] = test system: Schistosoma mansoni 21-day-old schistosomules; test: effect on 21-day-old schistosomules in mice; format: in vivo; conditions: single 200 mg/kg per os, female mice
# Experimental: All groups were killed 4 weeks after treatment and the liver and intestine were removed and separated. The liver and intestine were compressed and alive male and female worms could be seen and counted. The effect of the compounds was evaluated by mean total and female worm burden.
# [4] = test system: Schistosoma mansoni adult schistosomes (49-day-old); test: effect on adult schistosomes (49-day-old) in mice; format: in vivo; conditions: for % reduction of adult worms growth at day 49 after per os application of 400 mg/kg, TWR (%) / adult worms at day 49, per os 400 mg/kg, DEAD WORM (%): single 400 mg/kg per os
# Experimental: Mice were infected with 100 Schistosoma mansoni cercariae […]. Each group was treated per os with OZ compounds at single doses of 200, 400, and 600 mg/kg. […] All groups were killed 4 weeks after treatment and the liver and intestine were removed and separated. The liver and intestine were compressed and alive male and female worms could be seen and counted.
# [5] = test system: P. falciparum K1 strain (Thailand resistant to chloroquine); test: semiautomated microdilution assay, [3H]-hypoxanthine incorporation, K1 strain; format: cell-based, Plasmodium falciparum; conditions: K1 strain, 72 h incubation; for IC50: Plasmodium falciparum, read-out: IC50 (ng/ml) K1
# Outline: (§1)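 Asynchronous stock cultures → intraerythrocytic forms; semiautomated microdilution; IC50 by logit regression.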
# [6] = test system: P. falciparum NF54 strain (sensitive to standard antimalarials); test: semiautomated microdilution assay, [3H]-hypoxanthine incorporation, NF54 strain; format: cell-based, Plasmodium falciparum; conditions: NF54 strain, 72 h incubation; for IC50: Plasmodium falciparum, read-out: IC50 (ng/ml) NF54
# Outline: as §1
Structure (SMILES),ED50 [1] [mg/kg],ED90 [1] [mg/kg],ED99 [1] [mg/kg],Activity (%) po [2] [%],Activity (%) sc [2] [%],Activity (%) SSVpo [2] [%],Survival (days) po [2] [days],Survival (days) sc [2] [days],Survival (days) SSVpo [2] [days],IC50 (ng/ml) K1 [5],IC50 (ng/ml) NF54 [6],other results
C[C@H]1[C@@H](OCc2ccc(C(=O)O)cc2)O[C@@H]2O[C@@]3(C)CC[C@H]4[C@H](C)CC[C@@H]1[C@@]24OO3 [Artelinate],4.8,10,18,–,–,–,–,–,–,–,–,–
CC1(C)COC2(CCC3(CC2)OOC2(O3)C3CC4CC(C3)CC2C4)OC1 (stereo not drawn) [OZ11],–,6.2,8.2,99.99,100,98,11.4,18,7.4,–,–,"% reduction of schistosomule growth at day 21 after per os application of 200 mg/kg, FWR (%) [3]: 84%; % reduction of schistosomule growth at day 21 after per os application of 200 mg/kg, TWR (%) [3]: 85%; % reduction of adult worms growth at day 49 after per os application of 400 mg/kg, TWR (%) [4]: 16%; adult worms at day 49, per os 400 mg/kg, DEAD WORM (%) [4]: 4%"
c1ccc(C2CCC3(CC2)OOC2(O3)C3CC4CC(C3)CC2C4)cc1 (stereo not drawn) [OZ27],–,5.7,9.9,99.97,99.92,96,12.6,17.1,8.0,–,–,IC50 [5]: 2.2 ng/mL; IC50 [6]: 4.8 ng/mL
O=C(O)CC1CCC2(CC1)OOC1(O2)C2CC3CC(C2)CC1C3 (stereo not drawn) [OZ78],–,9.1,17,94,79,97,8.7,6.7,7.0,24 ng/mL,42 ng/mL,"% reduction of schistosomule growth at day 21 after per os application of 200 mg/kg, FWR (%) [3]: 87%; % reduction of schistosomule growth at day 21 after per os application of 200 mg/kg, TWR (%) [3]: 82%; % reduction of adult worms growth at day 49 after per os application of 200 mg/kg, TWR (%) ([4]; single 200 mg/kg per os): 24%; adult worms at day 49, per os 200 mg/kg, DEAD WORM (%) ([4]; single 200 mg/kg per os): 29%; % reduction of adult worms growth at day 49 after per os application of 400 mg/kg, TWR (%) [4]: 0%; adult worms at day 49, per os 400 mg/kg, DEAD WORM (%) [4]: 17%; % reduction of adult worms growth at day 49 after per os application of 600 mg/kg, TWR (%) ([4]; single 600 mg/kg per os): 0%; adult worms at day 49, per os 600 mg/kg, DEAD WORM (%) ([4]; single 600 mg/kg per os): 14%"
COCC(=O)N1CCC2(CC1)OOC1(O2)C2CC3CC(C2)CC1C3 (stereo not drawn) [OZ113],3.6,9.0,19,92,89,96,7.3,7.3,8.0,0.95 ng/mL,0.20 ng/mL,–
O=C(NO)[C@H]1CC[C@@]2(CC1)OOC1(O2)C2CC3CC(C2)CC1C3 (stereo partly drawn) [OZ127],2.5,7.6,19,95,97,98,7.0,7.7,7.7,0.61 ng/mL,1.3 ng/mL,–
c1ccc(C[C@H]2CC[C@]3(CC2)OOC2(O3)C3CC4CC(C3)CC2C4)cc1 (stereo partly drawn) [OZ156],1.3,2.6,4.7,99.98,99.98,98.8,17.0,19.7,10.3,2.1/2.1 ng/ml,2.1/2.1 ng/ml,"% reduction of schistosomule growth at day 21 after per os application of 200 mg/kg, FWR (%) [3]: 72%; % reduction of schistosomule growth at day 21 after per os application of 200 mg/kg, TWR (%) [3]: 75%; % reduction of adult worms growth at day 49 after per os application of 400 mg/kg, TWR (%) [4]: 0%; adult worms at day 49, per os 400 mg/kg, DEAD WORM (%) [4]: 6%"
c1ncn(C[C@H]2CC[C@]3(CC2)OOC2(O3)C3CC4CC(C3)CC2C4)n1 (stereo partly drawn) [OZ177],–,3.7,5.8,–,–,–,–,–,12.7,–,–,IC50 [5]: 0.9 ng/mL; IC50 [6]: 1.7 ng/mL
c1cn(C[C@H]2CC[C@]3(CC2)OOC2(O3)C3CC4CC(C3)CC2C4)cn1 (stereo partly drawn) [OZ179],1.4,3.3,6.6,–,–,99.78,–,–,10.3,1.3 ng/mL,1.1 ng/mL,Activity (%) po ([2]; 10 mg/kg): 99.91%; Activity (%) sc ([2]; 10 mg/kg): 99.91%; Survival (days) po ([2]; 10 mg/kg): 11.3 days; Survival (days) sc ([2]; 10 mg/kg): 11.3 days
NC[C@H]1CC[C@]2(CC1)OOC1(O2)C2CC3CC(C2)CC1C3 (stereo partly drawn) [OZ181],0.63,1.8,4.0,–,100,99.91,–,–,10.0,–,–,Activity (%) po ([2]; 10 mg/kg): 99.98%; Survival (days) po ([2]; 10 mg/kg): 9.0 days; Survival (days) sc ([2]; 10 mg/kg): 11.0 days
CC(C)(O)C[C@H]1CC[C@]2(CC1)OOC1(O2)C2CC3CC(C2)CC1C3 (stereo partly drawn) [OZ205],1.6,3.3,6.0,99.96,99.96,99.94,10.0,9.7,8.7,1.5 ng/mL,2.0 ng/mL,"% reduction of schistosomule growth at day 21 after per os application of 200 mg/kg, FWR (%) [3]: 83%; % reduction of schistosomule growth at day 21 after per os application of 200 mg/kg, TWR (%) [3]: 84%; % reduction of adult worms growth at day 49 after per os application of 400 mg/kg, TWR (%) [4]: 0%; adult worms at day 49, per os 400 mg/kg, DEAD WORM (%) [4]: 12%"
c1cn(CC[C@H]2CC[C@]3(CC2)OOC2(O3)C3CC4CC(C3)CC2C4)cn1 (stereo partly drawn) [OZ219],1.6,3.0,5.2,99.89,99.91,99.82,8.7,9.3,8.0,0.85 ng/mL,1.6 ng/mL,–
CN1CCN(C(=O)C[C@H]2CC[C@]3(CC2)OOC2(O3)C3CC4CC(C3)CC2C4)CC1 (stereo partly drawn) [OZ227],2.3,4.0,6.2,99.68,99.84,99.90,8.3,10.7,9.3,0.20/0.20 ng/ml,0.20/0.20 ng/ml,–
c1ncn(C[C@H]2CC[C@]3(CC2)OOC2(O3)C3CC4CC(C3)CC2C4)n1 (stereo partly drawn) [OZ235],4.0,7.1,11,99.92,97,99.97,8.7,8.0,9.0,1.0 ng/mL,2.0 ng/mL,–
